“And” between values parts separate entries of the source, which are not always exact repeats. Identical values can stand only once.
Assays:
RgNanH [1] = assay: Specificity of RgNanH against sialylated oligosaccharides (HPAEC-PAD); assay type: biochemical, Ruminococcus gnavus ATCC 29149; set-up: key to Activity, RgNanH: +: Activity was defined as disappearance of the substrate peak and appearance of a lower molecular weight peak which could correspond to the desialylated substrate; conditions: 1 mM substrate, 1 nM enzyme, 37° C., pH 6.5, overnight
[2] = tested on: AkmNan0625 and AkmNan1835; assay: Specificity of AkmNan0625 and AkmNan1835 against sialylated oligosaccharides (HPAEC-PAD); assay type: biochemical, Akkermansia muciniphila; set-up: key to Activity, AkmNan0625 and AkmNan1835: +: Activity was defined as disappearance of the substrate peak and appearance of a lower molecular weight peak which could correspond to the desialylated substrate
Excerpt: All chemicals were obtained from Sigma (St. Louis, US) unless otherwise stated. The Akkermansia muciniphila sialidases, termed here AkmNan0625 and AkmNan1835, were obtained by His-Tag overexpression of their genes (Amuc_0625 and Amuc_1835, respectively (van Passel, M. W. et al. The genome of Akkermansia muciniphila, a dedicated intestinal mucin degrader, and its use in exploring intestinal metagenomes. Plos One 6, e16876 (2011)) in E. coli BL21(DE3) and subsequent purification to homogeneity by immobilised metal affinity chromatography (IMAC) as described below. The sialylated oligosaccharides and OC were obtained from Carbosynth (Berks, UK).

RgNanH [3] = assay: Kinetic analysis of RgNanH with sialylated substrates; conditions: 37° C., pH 6.5
Procedure: For 4MU-Neu5Ac and 3′SL, the rate of hydrolysis without enzyme was not significant so raw data were used. However, for pNP-Neu5Ac the rate of hydrolysis without enzyme was significant so the rate with enzyme was corrected by the subtraction of the rate without enzyme at each concentration of substrate.
Kinetic data were obtained from at least duplicate (usually triplicate) experiments, and the kinetic parameters were calculated by fitting the initial raw data to the Michaelis-Menten equation using a non-linear regression analysis program (Prism 6, GraphPad, San Diego, USA), error bars (standard error of the mean) are shown.

[4] = biological target: T1, Ruminococcus gnavus ATCC 29149 sialidase RgNanH (intramolecular trans-sialidase, IT-sialidase), wild type, full length excluding signal sequence residues 1-25, (Mediterraneibacter gnavus, UniProt A7B557); conditions: 37° C., pH 6.5
T1 sequence (A7B557 26-723): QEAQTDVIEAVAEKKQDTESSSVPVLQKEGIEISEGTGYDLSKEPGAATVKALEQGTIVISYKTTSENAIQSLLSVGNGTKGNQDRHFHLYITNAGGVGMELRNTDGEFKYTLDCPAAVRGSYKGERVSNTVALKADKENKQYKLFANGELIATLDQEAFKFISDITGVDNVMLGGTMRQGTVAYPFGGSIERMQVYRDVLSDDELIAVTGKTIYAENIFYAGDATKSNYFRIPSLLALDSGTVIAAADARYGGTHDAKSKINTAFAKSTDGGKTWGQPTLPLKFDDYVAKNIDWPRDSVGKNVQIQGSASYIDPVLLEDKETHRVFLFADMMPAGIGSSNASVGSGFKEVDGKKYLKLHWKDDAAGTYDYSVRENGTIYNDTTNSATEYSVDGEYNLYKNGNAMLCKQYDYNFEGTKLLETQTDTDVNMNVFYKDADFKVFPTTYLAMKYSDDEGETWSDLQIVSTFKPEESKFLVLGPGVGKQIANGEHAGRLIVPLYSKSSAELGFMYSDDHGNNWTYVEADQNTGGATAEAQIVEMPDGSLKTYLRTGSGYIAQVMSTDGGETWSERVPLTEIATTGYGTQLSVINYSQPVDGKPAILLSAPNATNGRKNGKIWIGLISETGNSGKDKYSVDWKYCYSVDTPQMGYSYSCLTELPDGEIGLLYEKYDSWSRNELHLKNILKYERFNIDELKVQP
Procedure: (§1) Substrate (a) 4MU-Neu5Ac or (b) PNP-Neu5Ac was incubated with RgNanH (0.22 mM and 0.43 nM respectively) at 37° C., pH 6.5 and the release of product measured using a plate-reader. (c) Inhibition of RgNanH (1.00 nM) incubated with 4MU-Neu5Ac (0.51 mM) by zanamivir (●), Neu5Ac2en (▪), Siastatin B (▴) and oseltamivir carboxylate (♦), the rates are normalised to a % of the uninhibited rate. [I] is the inhibitor concentration. (d) 3′SL was incubated with RgNanH (2.25 nM) and the release of product measured by HPAEC-PAD. Experiments were done at least in duplicate (usually triplicate) and the error bars show the standard error of the mean.

RgNanH [5] = biological target: T2, RgNanH (Mediterraneibacter gnavus, UniProt A7B557); assay: Inhibition of RgNanH activity against 4MU-Neu5Ac by neuraminidase inhibitors; conditions: for Inhibition of RgNanH (in words): 4MU-Neu5Ac 0.51 mM, 1 nM enzyme, Neu5Ac 0-0.3 mM, Lac 0-1.5 mM
T2 sequence (A7B557 26-723): T1 sequence (A7B557 26-723)

[6] = Spontaneous conversion of 2,7-anhydro-Neu5Ac to Neu5Ac (1H NMR, HPAEC-PAD); assay type: physicochemical; conditions: up to 24 h at 37° C.
sialic acid aldolase = biological target: T3, sialic acid aldolase (Escherichia coli, UniProt P0A6L4); assay: Degradation of 2,7-anhydro-Neu5Ac by sialic acid aldolase; assay type: biochemical
T3 construct: purchased Carbosynth Limited (Compton, UK)
T3 sequence (P0A6L4 whole entry): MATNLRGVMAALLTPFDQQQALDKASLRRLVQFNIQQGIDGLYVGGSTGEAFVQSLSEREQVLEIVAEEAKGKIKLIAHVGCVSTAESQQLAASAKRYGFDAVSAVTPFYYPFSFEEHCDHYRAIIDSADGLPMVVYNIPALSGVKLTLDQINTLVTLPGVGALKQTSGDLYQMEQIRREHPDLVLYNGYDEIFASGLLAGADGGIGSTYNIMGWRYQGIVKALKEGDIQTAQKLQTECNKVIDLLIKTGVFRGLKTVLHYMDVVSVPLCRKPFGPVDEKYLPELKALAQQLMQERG
Procedure: A dialysis membrane (7K MWCO) containing fetuin (0.3 mM) was incubated in 100 mM ammonium formate buffer pH 6.5 for 2 h at 37° C. under gentle shaking (115 rpm). Following the addition of 50 nM RgNanH (in Tris buffer 40 mM pH 7.9) into the dialysis membrane, the reaction mixture was further incubated in 100 mM ammonium formate buffer (pH 6.5) at 115 rpm, 37° C. for 24 h. Sialic acid aldolase (17.4 units in 100 mM ammonium formate) was added to the membrane enclosed reaction mixture. Following a further 20 h incubation at 115 rpm and 37° C., 100 mL of buffer was recovered, diluted with 100 mL of ultrapure water and freeze dried. The membrane enclosed reaction mixture was dialysed with 100 mL ultrapure water for 2 h and again overnight under 115 rpm shaking and at 37° C. The water was recovered, mixed with the dried synthesis buffer and freeze dried. After complete dryness, the powder was dissolved in 100 mL ultrapure water and freeze dried again 3 times to remove volatile salts.
Considering the difficulty and the low efficiency of the separation of free Neu5Ac from 2,7-anhydro-Neu5Ac, a commercially available sialic acid aldolase from E. coli was introduced into the dialysis membrane with RgNanH and fetuin. […]

[7] = tested on: R. gnavus strains (ATCC 29149 and ATCC 35913); assay: Growth of R. gnavus strains on 2,7-anhydro-Neu5Ac as sole carbon source; assay type: cell-based, Ruminococcus gnavus; conditions: anaerobic
Procedure: The ability of pathogens to utilise 2,7-anhydroSA as a potential nutrient by growing the cells in presence of 2,7-anhydroSA (or sialic acid as a control) as sole carbon source under anaerobic conditions is tested. […] The ability of these pathogens to utilise 2,7-anhydro-Neu5Ac is tested by growing the cells in vitro with 2,7-anhydro-Neu5Ac synthesised using the enzymatic synthesis as described above, as sole carbon source. Growth is determined spectrophotometrically and analysed using an appropriately developed DMFit program to compare the effect of the carbon source on growth rates. The impact of ITS on the ability of pathogens to grow on mucins purified from human “goblet-like” cells is tested in co-culture experiments with R. gnavus strains (ATCC 29149 expressing ITS and E1 as a negative control) in anaerobic continuous reactors.

RgNanH [8] = biological target: T2, RgNanH; conditions: 1 mg/ml glycoprotein, 37° C., pH 6.5, overnight
Procedure: Extracts (400 μL) were mixed with 200 μL of D2O and 20 μL of a solution of D2O containing 1 mM of TSP (sodium 3-(trimethylsilyl)-propionate-d4). Samples (500 μL) were transferred into a 5-mm NMR tube for spectral acquisition. The ^1H NMR spectra were recorded at 600 MHz on a Bruker Avance spectrometer (Bruker BioSpin GmbH, Rheinstetten, Germany) running Topspin 2.0 software and fitted with a cryoprobe and a 60-slot autosampler. Each ^1H NMR spectrum was acquired with 128 scans, a spectral width of 8,012.8 Hz, an acquisition time of 2.04 s, and a relaxation delay of 2.0 s. The “noesypr1d” presaturation sequence was used to suppress the residual water signal with a low-power selective irradiation at the water frequency during the recycle delay and a mixing time of 100 ms. Spectra were transformed with a 0.3-Hz line broadening, manually phased, baseline corrected, and referenced by setting the TSP methyl signal to 0 ppm.

[9] = substrate: CC(=O)N[C@H]1[C@H]([C@H](O)[C@H](O)CO)O[C@@](Oc2ccc3c(C)cc(=O)oc3c2)(C(=O)O)C[C@@H]1O; assay: purified protein, by the assay type; conditions: other: 37° C., pH 6.5, * estimated value, ± standard error of the mean
Procedure: as §1

[10] = * estimated value, ± standard error of the mean

For CC(=O)N[C@H]1[C@H]([C@H](O)[C@H](O)CO)O[C@@](O[C@H]2[C@@H](O)[C@@H](CO)O[C@@H](O[C@H]3[C@H](O)[C@@H](O)C(O)O[C@@H]3CO)[C@@H]2O)(C(=O)O)C[C@@H]1O (stereo partly drawn) [3′SL, Neu5Ac-α-2-3-Gal-β-1-4-Glc], the “Activity, RgNanH” value (RgNanH [1]) was “+”, the “Activity of AkmNan0625 and AkmNan1835 on substrate (in words)” value [2] was “active” and the “Activity, AkmNan0625 and AkmNan1835” value ([2]; 1 mM substrate, 1 nM enzyme, 37° C., pH 6.5, overnight) was “+”. For the same molecule, the KM (RgNanH [3]) was “below detection limit”, the Km (RgNanH [3]) was under 100 µM and the Vmax (RgNanH [3]) was 0.0566 ± 0.0057 µM/min. For the same molecule, the kcat (RgNanH [3]) was 0.428 s⁻¹ and 0.4283 s⁻¹, the Ki (RgNanH [3]; read-out: Ki (substrate inhibition)) was 760 µM and the KM [4, 10] was “below detection limit”. The Km [4, 10] was under 100 µM and the kcat/KM ([4]; ** calculated using estimated value) was >>2.57 × 10^2** min^−1 · mM^−1.

In the case of CC(=O)N[C@H]1[C@H]([C@H](O)[C@H](O)CO)OC(O)(C(=O)O)C[C@@H]1O (some centres unmarked) [Neu5Ac, N-Acetylneuraminic acid], the “Inhibition of RgNanH (in words)” value (RgNanH [5]) is reported as “not inhibited”.

In the case of CC(=O)N[C@H]1NC[C@H](C(=O)O)[C@H](O)[C@@H]1O [Siastatin B], the IC50 (RgNanH [5]; Table 2, substrate 4MU-Neu5Ac 0.51 mM, RgNanH 1.00 nM) is reported as 4.87 µM.

For CC(=O)N[C@H]1[C@H]([C@H](O)[C@H](O)CO)O[C@@](Oc2ccc([N+](=O)[O-])cc2)(C(=O)O)C[C@@H]1O [PNP-Neu5Ac, 2-O-(p-Nitrophenyl)-α-D-N-acetylneuraminic acid], the KM [4, 10] was “high KM”.

With CC(=O)N[C@H]1[C@H]2O[C@@](C(=O)O)(C[C@@H]1O)O[C@@H]2[C@H](O)CO [2,7-anhydro-Neu5Ac, 2,7-anhydro-α-N-acetylneuraminic acid] the “Spontaneous conversion of 2,7-anhydro-Neu5Ac to Neu5Ac” value [6] was “no spontaneous conversion”, the “Degradation by sialic acid aldolase” value (sialic acid aldolase) was “resistant to degradation” and the “Growth of R. gnavus strains on the compound as sole carbon source” value [7] was “able to grow”.

In the case of OC[C@H]1O[C@@H](O[C@H]2[C@H](O)[C@@H](O)C(O)O[C@@H]2CO)[C@H](O)[C@@H](O)[C@H]1O (some centres unmarked) [Lactose], the “Inhibition of RgNanH (in words)” value (RgNanH [5]) is reported as “not inhibited”.

For CC(=O)N[C@H]1[C@H]([C@H](O)[C@H](O)CO)OC(C(=O)O)=C[C@@H]1N=C(N)N [Zanamivir, 4-guanidino-Neu5Ac2en], the IC50 (RgNanH [5]; substrate 4MU-Neu5Ac) was 11900 µM.

With CC(=O)NC1C(O)C=C(C(=O)O)OC1C(O)C(O)CO [Neu5Ac2en, 2-deoxy-2,3-didehydro-D-N-acetylneuraminic acid] the IC50 (RgNanH [5]; IC50, Table 2, substrate 4MU-Neu5Ac 0.51 mM, RgNanH 1.00 nM) was 1410 µM and the IC50 (RgNanH [5]; IC50, substrate 4MU-Neu5Ac) was 1400 µM.

For asialo-fetuin, the “Activity of RgNanH against glycoprotein (2,7-anhydro-Neu5Ac peaks by 1H NMR)” value (RgNanH [8]) was “no change”.

B1: Ruminococcus gnavus ATCC 29149 sialidase RgNanH (intramolecular trans-sialidase, IT-sialidase), wild type, full length excluding signal sequence residues 1-25, … (protein)
chain: T1 sequence (A7B557 26-723)
B1 showed a Km [9] of 590 ± 170 µM, a Vmax [9] of 1.37 µM/min and a kcat [9] of 104 s⁻¹. For the same molecule, the kcat/Km [9] was 175000 M⁻¹ s⁻¹.

From patent publication US20190037899A1, “Intramolecular Trans-Sialidase” (THE INSTITUTE OF FOOD RESEARCH, priority 2016, published 2019)
